# Target: T1, human Fatty Acid Synthase (Homo sapiens, UniProt P49327)
# T1 construct: made in house
# Assay: Human FAS enzyme assay (decrease in NADPH fluorescence)
# Format: biochemical
# Details: % inhibition at a concentration of 100 micromolar
# Method in brief: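 Readout: decrease in NADPH fluorescence (340 nm ex, 460 nm em) after 60 min at RT, background-subtracted against a read taken before substrate. Substrate mix contained 500 μM malonyl-CoA and 150 μM acetyl-CoA. It was added after 15 min enzyme (0.4 μg in-house human FAS)–compound–NADPH preincubation in Tris pH 7.5 buffer; % inhibition was fitted to IC50.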
# T1 sequence (P49327 whole entry): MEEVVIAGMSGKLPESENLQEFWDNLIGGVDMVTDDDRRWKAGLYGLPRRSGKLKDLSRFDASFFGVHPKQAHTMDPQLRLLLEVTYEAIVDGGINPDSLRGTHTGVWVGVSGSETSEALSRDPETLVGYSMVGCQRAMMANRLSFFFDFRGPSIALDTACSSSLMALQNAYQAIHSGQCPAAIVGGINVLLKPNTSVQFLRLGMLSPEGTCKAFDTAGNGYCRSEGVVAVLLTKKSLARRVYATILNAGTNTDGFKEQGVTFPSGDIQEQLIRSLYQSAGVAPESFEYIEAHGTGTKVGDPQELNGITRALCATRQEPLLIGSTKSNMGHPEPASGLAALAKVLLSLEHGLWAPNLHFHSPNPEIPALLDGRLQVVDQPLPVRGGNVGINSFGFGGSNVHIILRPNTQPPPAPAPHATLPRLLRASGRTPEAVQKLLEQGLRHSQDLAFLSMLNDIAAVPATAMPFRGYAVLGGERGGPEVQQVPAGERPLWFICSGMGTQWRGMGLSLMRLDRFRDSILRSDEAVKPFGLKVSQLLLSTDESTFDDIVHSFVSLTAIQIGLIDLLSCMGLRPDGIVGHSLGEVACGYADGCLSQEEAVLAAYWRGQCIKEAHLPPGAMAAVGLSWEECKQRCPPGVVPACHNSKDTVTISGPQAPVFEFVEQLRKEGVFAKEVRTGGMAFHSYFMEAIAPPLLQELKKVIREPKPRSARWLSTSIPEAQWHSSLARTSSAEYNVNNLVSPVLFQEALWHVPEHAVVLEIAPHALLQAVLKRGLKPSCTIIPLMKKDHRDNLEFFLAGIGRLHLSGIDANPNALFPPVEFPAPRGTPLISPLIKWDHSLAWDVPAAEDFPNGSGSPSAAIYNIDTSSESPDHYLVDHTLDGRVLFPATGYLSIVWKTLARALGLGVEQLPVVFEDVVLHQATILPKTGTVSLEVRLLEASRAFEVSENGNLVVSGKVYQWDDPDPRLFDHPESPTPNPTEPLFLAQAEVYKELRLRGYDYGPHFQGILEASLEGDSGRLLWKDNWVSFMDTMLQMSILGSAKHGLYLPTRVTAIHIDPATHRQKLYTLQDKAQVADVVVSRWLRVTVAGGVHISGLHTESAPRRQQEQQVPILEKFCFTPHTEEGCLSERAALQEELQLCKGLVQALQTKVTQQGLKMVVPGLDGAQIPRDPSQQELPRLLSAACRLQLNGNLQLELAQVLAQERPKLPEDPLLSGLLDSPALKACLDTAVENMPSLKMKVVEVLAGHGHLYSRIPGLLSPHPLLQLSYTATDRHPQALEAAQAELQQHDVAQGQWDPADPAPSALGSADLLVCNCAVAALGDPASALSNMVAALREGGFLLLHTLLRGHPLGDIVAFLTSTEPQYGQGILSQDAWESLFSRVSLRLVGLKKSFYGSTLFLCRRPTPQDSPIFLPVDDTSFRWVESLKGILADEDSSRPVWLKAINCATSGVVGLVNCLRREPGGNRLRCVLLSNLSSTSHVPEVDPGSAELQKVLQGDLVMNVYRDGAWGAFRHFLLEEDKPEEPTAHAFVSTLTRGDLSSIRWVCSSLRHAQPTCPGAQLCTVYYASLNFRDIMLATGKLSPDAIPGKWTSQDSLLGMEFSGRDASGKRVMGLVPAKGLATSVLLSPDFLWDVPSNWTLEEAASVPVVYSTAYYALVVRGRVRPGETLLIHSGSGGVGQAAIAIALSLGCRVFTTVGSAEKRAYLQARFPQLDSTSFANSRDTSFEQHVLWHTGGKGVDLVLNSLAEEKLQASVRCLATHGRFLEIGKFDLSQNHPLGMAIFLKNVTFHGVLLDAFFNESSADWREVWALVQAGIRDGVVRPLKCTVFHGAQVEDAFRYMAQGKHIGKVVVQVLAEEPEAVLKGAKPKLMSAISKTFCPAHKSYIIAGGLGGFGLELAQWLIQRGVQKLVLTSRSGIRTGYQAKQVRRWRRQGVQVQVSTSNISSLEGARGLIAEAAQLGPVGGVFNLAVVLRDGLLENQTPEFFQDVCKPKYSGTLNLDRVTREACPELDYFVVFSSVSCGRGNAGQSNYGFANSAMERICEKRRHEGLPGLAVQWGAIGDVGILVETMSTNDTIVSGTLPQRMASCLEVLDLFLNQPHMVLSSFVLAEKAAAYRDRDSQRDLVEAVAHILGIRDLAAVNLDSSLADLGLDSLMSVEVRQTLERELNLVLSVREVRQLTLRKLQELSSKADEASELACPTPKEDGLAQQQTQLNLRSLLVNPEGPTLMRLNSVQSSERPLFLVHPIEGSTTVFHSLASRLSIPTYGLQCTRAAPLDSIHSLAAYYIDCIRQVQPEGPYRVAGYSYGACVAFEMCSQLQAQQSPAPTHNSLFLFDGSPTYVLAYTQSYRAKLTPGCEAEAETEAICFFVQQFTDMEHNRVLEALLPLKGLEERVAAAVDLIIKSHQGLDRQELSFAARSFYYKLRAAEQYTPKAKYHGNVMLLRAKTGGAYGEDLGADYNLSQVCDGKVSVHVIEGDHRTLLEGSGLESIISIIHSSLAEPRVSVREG
row,SMILES,inhibition at 100 µM
1,"Cc1nc(C)c(S(=O)(=O)Nc2cc(C(=O)N3CCC(c4ccc(C#N)cc4)CC3)ccc2C)s1 [Example 106, N-[5-[4-(4-cyanophenyl)piperidine-1-carbonyl]-2-methyl-phenyl]-2,4-dimethyl-1,3-thiazole-5-sulfonamide]",95%
2,"Cc1ccc(C(=O)N2CCC(c3ccc(C#N)cc3)CC2)cc1NS(=O)(=O)c1cccnc1 [Example 107, N-[5-[4-(4-cyanophenyl)piperidine-1-carbonyl]-2-methyl-phenyl]pyridine-3-sulfonamide]",92%
3,"COC(=O)c1ccccc1S(=O)(=O)Nc1cc(C(=O)N2CCC(c3ccc(C#N)cc3)CC2)ccc1C [Example 108, methyl 2-[[5-[4-(4-cyanophenyl)piperidine-1-carbonyl]-2-methyl-phenyl]sulfamoyl]benzoate]",78%
4,"Cc1ccc(C(=O)N2CCC(c3ccc(C#N)cc3)CC2)cc1NS(=O)(=O)c1ccccc1C(=O)N1CCOCC1 [Example 111, N-[5-[4-(4-cyanophenyl)piperidine-1-carbonyl]-2-methyl-phenyl]-2-(morpholine-4-carbonyl)benzenesulfonamide]",80%
5,"Cc1ccc(C(=O)N2CCC(c3ccc(C(N)=O)cc3)CC2)cc1NS(C)(=O)=O [Example 112, 4-[1-(3-methanesulfonamido-4-methyl-benzoyl)-4-piperidyl]benzamide]",79%
6,"Cc1ccc(C(=O)N2CCC(c3ccc(C#N)cc3)CC2)cc1NS(=O)(=O)c1ccccc1C(N)=O [Example 113, 2-[[5-[4-(4-cyanophenyl)piperidine-1-carbonyl]-2-methyl-phenyl]sulfamoyl]benzamide]",77%
7,"Cc1ccc(C(=O)N2CCC(c3ccc(C#N)cc3)CC2)cc1NS(=O)(=O)c1cnc(C)n1C [Example 114, N-[5-[4-(4-cyanophenyl)piperidine-1-carbonyl]-2-methyl-phenyl]-2,3-dimethyl-imidazole-4-sulfonamide]",85%
8,"Cc1ccc(C(=O)N2CCC(c3ccc(C#N)cc3)CC2)cc1NS(=O)(=O)C1CCNCC1 [Example 115, N-[5-[4-(4-cyanophenyl)piperidine-1-carbonyl]-2-methyl-phenyl]piperidine-4-sulfonamide]",97%
9,"Cc1cc(C)c(C(=O)N2CCC(c3ccc(C#N)cc3)CC2)cc1NS(=O)(=O)C1CC1 [Example 116, N-[5-[4-(4-cyanophenyl)piperidine-1-carbonyl]-2,4-dimethyl-phenyl]cyclopropanesulfonamide]",92%
10,"CCCS(=O)(=O)Nc1cc(C(=O)N2CCC(c3ccc(C#N)cc3)CC2)c(C)cc1C [Example 117, N-[5-[4-(4-cyanophenyl)piperidine-1-carbonyl]-2,4-dimethyl-phenyl]propane-1-sulfonamide]",98%
11,"CC(=O)N1CCC(S(=O)(=O)Nc2cc(C(=O)N3CCC(c4ccc(C#N)cc4)CC3)ccc2C)CC1 [Example 118, 1-acetyl-N-[5-[4-(4-cyanophenyl)piperidine-1-carbonyl]-2-methyl-phenyl]piperidine-4-sulfonamide]",85%
12,"Cc1ccc(C(=O)N2CCC(c3ccc(C#N)cc3)CC2)cc1NS(=O)(=O)C1CCN(S(=O)(=O)C(C)C)CC1 [Example 119, N-[5-[4-(4-cyanophenyl)piperidine-1-carbonyl]-2-methyl-phenyl]-1-propan-2-ylsulfonyl-piperidine-4-sulfonamide]",94%
13,"Cc1ccc(C(=O)N2CCC(c3ccc(C#N)cc3)CC2)cc1NS(=O)(=O)C1CCN(C(C)C)CC1 [Example 120, N-[5-[4-(4-cyanophenyl)piperidine-1-carbonyl]-2-methyl-phenyl]-1-propan-2-yl-piperidine-4-sulfonamide]",94%
14,"Cc1ccc(C(=O)N2CCC(c3ccc(C#N)cc3)CC2)cc1NS(=O)(=O)C1CCN(S(C)(=O)=O)CC1 [Example 121, N-[5-[4-(4-cyanophenyl)piperidine-1-carbonyl]-2-methyl-phenyl]-1-methylsulfonyl-piperidine-4-sulfonamide]",89%
15,"CCS(=O)(=O)N1CCC(S(=O)(=O)Nc2cc(C(=O)N3CCC(c4ccc(C#N)cc4)CC3)ccc2C)CC1 [Example 122, N-[5-[4-(4-cyanophenyl)piperidine-1-carbonyl]-2-methyl-phenyl]-1-ethylsulfonyl-piperidine-4-sulfonamide]",98%
16,"CCc1ccc(C(=O)N2CCC(c3ccc(C#N)cc3)CC2)cc1NS(=O)(=O)C1CCS(=O)(=O)C1 (stereo not shown) [Example 124, N-[5-[4-(4-cyanophenyl)piperidine-1-carbonyl]-2-ethyl-phenyl]-1,1-dioxo-thiolane-3-sulfonamide]",82%
17,"Cc1ccc(C(=O)N2CCC(c3ccc(C#N)cc3)CC2)cc1NS(=O)(=O)C1CCN(C)CC1 [Example 125, N-[5-[4-(4-cyanophenyl)piperidine-1-carbonyl]-2-methyl-phenyl]-1-methyl-piperidine-4-sulfonamide]",98%
18,"Cc1ccc(C(=O)N2CCC(c3ccc(C#N)cc3)CC2)cc1NS(=O)(=O)C1CCS(=O)(=O)C1 (stereo not shown) [Example 127, N-[5-[4-(4-cyanophenyl)piperidine-1-carbonyl]-2-methyl-phenyl]-1,1-dioxo-thiolane-3-sulfonamide]",92%
19,"Cc1ccc(C(=O)N2CCC(c3ccc(C#N)cc3)CC2)cc1NS(=O)(=O)c1ccc2c(c1)CC(=O)N2 [Example 129, N-[5-[4-(4-cyanophenyl)piperidine-1-carbonyl]-2-methyl-phenyl]-2-oxo-1,3-dihydroindole-5-sulfonamide]",95%
20,"Cc1ccc(C(=O)N2CCC(c3ccc(C#N)cc3)CC2)cc1NS(=O)(=O)CCCN1C(=O)c2ccccc2C1=O [Example 134, N-[5-[4-(4-cyanophenyl)piperidine-1-carbonyl]-2-methyl-phenyl]-3-(1,3-dioxoisoindol-2-yl)propane-1-sulfonamide]",97%
21,"CS(=O)(=O)c1ccc(C(=O)N2CCC(c3ccc(C#N)cc3)CC2)cc1NS(=O)(=O)Cc1ccccc1 [Example 135, N-[5-[4-(4-cyanophenyl)piperidine-1-carbonyl]-2-methylsulfonyl-phenyl]-1-phenyl-methanesulfonamide]",100%
22,"COC(=O)C(C)S(=O)(=O)Nc1cc(C(=O)N2CCC(c3ccc(C#N)cc3)CC2)ccc1C (stereo not shown) [Example 137, Methyl 2-[[5-[4-(4-cyanophenyl)piperidine-1-carbonyl]-2-methyl-phenyl]sulfamoyl]propanoate]",97%
23,"Cc1ccc(C(=O)N2CCC(c3ccc(C#N)cc3)CC2)cc1NS(=O)(=O)C(C)CO (stereo not shown) [Example 138, N-[5-[4-(4-cyanophenyl)piperidine-1-carbonyl]-2-methyl-phenyl]-1-hydroxy-propane-2-sulfonamide]",100%

# Next, values leading:
row,inhibition at 100 µM,SMILES
1,89%,"COCCS(=O)(=O)Nc1cc(C(=O)N2CCC(c3ccc(C#N)cc3)CC2)ccc1C [Example 105, N-[5-[4-(4-cyanophenyl)piperidine-1-carbonyl]-2-methyl-phenyl]-2-methoxy-ethanesulfonamide]"
2,94%,"Cc1ccc(C(=O)N2CCC(c3ccc(C#N)cc3)CC2)cc1NS(=O)(=O)CCO [Example 109, N-[5-[4-(4-cyanophenyl)piperidine-1-carbonyl]-2-methyl-phenyl]-2-hydroxy-ethanesulfonamide]"
3,86%,"COCCCS(=O)(=O)Nc1cc(C(=O)N2CCC(c3ccc(C#N)cc3)CC2)ccc1C [Example 110, N-[5-[4-(4-cyanophenyl)piperidine-1-carbonyl]-2-methyl-phenyl]-3-methoxy-propane-1-sulfonamide]"
4,85%,"CCc1ccc(C(=O)N2CCC(c3ccc(C#N)cc3)CC2)cc1NS(C)(=O)=O [Example 123, N-[5-[4-(4-cyanophenyl)piperidine-1-carbonyl]-2-ethyl-phenyl]methanesulfonamide]"
5,87%,"Cc1ccc(C(=O)N2CCC(c3ccc(C#N)cc3)CC2)cc1NS(=O)(=O)CCCN [Example 126, 3-amino-N-[5-[4-(4-cyanophenyl)piperidine-1-carbonyl]-2-methyl-phenyl]propane-1-sulfonamide]"
6,96%,"Cc1ccc(C(=O)N2CCC(c3ccc(C#N)cc3)CC2)cc1NS(=O)(=O)C(C)C [Example 128, N-[5-[4-(4-cyanophenyl)piperidine-1-carbonyl]-2-methyl-phenyl]propane-2-sulfonamide]"
7,77%,"Cc1ccc(C(=O)N2CCC(c3ccc(C#N)cc3)CC2)cc1NS(=O)(=O)CC(=O)O [Example 130, 2-[[5-[4-(4-cyanophenyl)piperidine-1-carbonyl]-2-methyl-phenyl]sulfamoyl]acetic acid]"
8,91%,"Cc1ccc(C(=O)N2CCC(c3ccc(C#N)cc3)CC2)cc1NS(=O)(=O)CCCNS(=O)(=O)C(C)C [Example 131, N-[5-[4-(4-cyanophenyl)piperidine-1-carbonyl]-2-methyl-phenyl]-3-(propan-2-ylsulfonylamino)propane-1-sulfonamide]"
9,88%,"Cc1ccc(C(=O)N2CCC(c3ccc(C#N)cc3)CC2)cc1NS(=O)(=O)CCCNS(C)(=O)=O [Example 132, N-[5-[4-(4-cyanophenyl)piperidine-1-carbonyl]-2-methyl-phenyl]-3-methanesulfonamido-propane-1-sulfonamide]"
10,91%,"Cc1ccc(C(=O)N2CCC(c3ccc(C#N)cc3)CC2)cc1NS(=O)(=O)CCCNC(=O)c1ccccc1 [Example 133, N-[3-[[5-[4-(4-cyanophenyl)piperidine-1-carbonyl]-2-methyl-phenyl]sulfamoyl]propyl]benzamide]"
11,94%,"CC(=O)NCCCS(=O)(=O)Nc1cc(C(=O)N2CCC(c3ccc(C#N)cc3)CC2)ccc1C [Example 136, N-[3-[[5-[4-(4-cyanophenyl)piperidine-1-carbonyl]-2-methyl-phenyl]sulfamoyl]propyl]acetamide]"

# From patent US20090105305A1, “Therapeutic Agents - 550” (AstraZeneca AB, priority 2006, published 2009)
